According to US9301955B2, “Tritoqualine for use in the treatment of cystic fibrosis” (ORPHAN SYNERGY EUROPE-PHARMA, priority 2012, dated 2016):
Ends that are not written are not given here.

Test system: IL8 release, epithelial cells from human gingival mucosa
Assay: IL8 release in human ex vivo gingival mucosa model stimulated by substance P
Assay type: cell-based
Conditions: gingival mucosa stimulated by substance P 10 microM alone; measured at 24 hours; versus 29.6 ng/ml in control group (p=0.04)
Experimental: Tritoqualin effect on IL8 release on a human ex vivo model (epithelial Cells from Human gingival extraction maintained in survival) after stimulation of IL8 release
13 fragments of gingival mucous from different human donors (removal of wisdom teeth of healthy volunteers) were maintained in survival ex vivo. To this end, fragments were placed in inserts themselves willing suspended above the culture wells. The nutrient medium (antibiotics, FCS—Fetal Calf Serum) was added to the bottom of the wells, passage is carried out by slow diffusion of the two compartments by means of a porous membrane ([…]). The whole was maintained in organ culture for 24 hours in an oven to a humid atmosphere at 37° C. in the presence of 5% CO2.
Gingival inflammation was achieved by stimulation of the mucosa with a neurotransmitter, substance P (10 microM) deposited in the culture medium. Tritoqualine was added to the culture medium (systemic effect) at a concentration of 20 microM, 10 minutes after application of substance P. […]
The inflammatory cytokine, IL8, a potent chemo attractant of neutrophils, was measured in culture supernatants, 24 hours after deposition of substance P.
IL8 was measured in ng/ml by immunoassays (kits Gen Probe, France) with a spectrophotometer at 450 nm.

Substance P: neurotransmitter, an established pro-inflammatory compound used to stimulate IL8 release (RPKPQQFFGLM-NH2; ends and bridges not checked; UniProt P20366 58-68, looked up)
IL8 release in culture supernatant: 31.7 ng/mL
